Test results as given in patent publication US5952368A, “5-aroylpyrrol-2-ylmethylarene derivatives” (Syntex (U.S.A.) Inc., priority 1997, dated 1999).

Columns and labels:
COX I = biological target: T1, COX I (Homo sapiens, UniProt P23219); experiment: Inhibition of COX I in vitro (radiometric assay, 14C arachidonic acid, partially purified enzyme); format: biochemical; conditions: partially purified COX I, 20 micromolar arachidonic acid, 10 min preincubation, room temperature; read-out: COX I IC50
T1 construct: made in house; baculovirus-infected insect cells by own knowledge of the cited Barnett et al. 1994
Method: (§1) The COX I and COX II inhibitory activity of compounds of this invention in vitro was determined using partially purified COX I and COX II enzymes, prepared as described in J. Barnett et al., Biochim. Biophys. Acta, 1209:130--139 (1994).
(§2) COX I and COX II samples were diluted with Tris-HCl buffer (50 mM Tris-HCl pH 7.9) containing 2 mM EDTA and 10% glycerol and reconstituted by incubating first with 2 mM phenol for 5 minutes and then with 1 micromolar hematin for an additional 5 minutes. 125 μl of the reconstituted COX I or COX II enzyme were preincubated for 10 minutes at room temperature in a shaking water bath with the compounds of the invention dissolved in 2-15 μl of DMSO or the carrier vehicles (control samples). The enzyme reaction was initiated by adding 25 μl of 1-[14C] arachidonic acid (80,000-100,000 cpm/tube; 20 micromolar final concentration) and the reaction was allowed to continue for an additional 45 seconds. The reaction was terminated by adding 100 μl of 2N HCl and 750 μl water. An aliquot (950 μl) of the reaction mixture was loaded onto a 1 ml C18 Sep-Pak column (J. T. Baker, Phillipsburg, N.J.) which had been previously washed with 2-3 ml methanol and equilibrated with 5-6 ml distilled water. Oxygenated products were quantitatively eluted with 3 ml of acetonitrile/water/acetic acid (50:50:0.1, v/v) and the radioactivity in the eluate determined in a scintillation counter.

COX II = biological target: T2, COX II (Homo sapiens, UniProt P35354); experiment: Inhibition of COX II in vitro (radiometric assay, 14C arachidonic acid, partially purified enzyme); format: biochemical; conditions: partially purified COX II, 20 micromolar arachidonic acid, 10 min preincubation, room temperature; read-out: COX II IC50
T2 construct: made in house; baculovirus-infected insect cells by own knowledge of the cited Barnett et al. 1994
T2 sequence (P35354 18-604): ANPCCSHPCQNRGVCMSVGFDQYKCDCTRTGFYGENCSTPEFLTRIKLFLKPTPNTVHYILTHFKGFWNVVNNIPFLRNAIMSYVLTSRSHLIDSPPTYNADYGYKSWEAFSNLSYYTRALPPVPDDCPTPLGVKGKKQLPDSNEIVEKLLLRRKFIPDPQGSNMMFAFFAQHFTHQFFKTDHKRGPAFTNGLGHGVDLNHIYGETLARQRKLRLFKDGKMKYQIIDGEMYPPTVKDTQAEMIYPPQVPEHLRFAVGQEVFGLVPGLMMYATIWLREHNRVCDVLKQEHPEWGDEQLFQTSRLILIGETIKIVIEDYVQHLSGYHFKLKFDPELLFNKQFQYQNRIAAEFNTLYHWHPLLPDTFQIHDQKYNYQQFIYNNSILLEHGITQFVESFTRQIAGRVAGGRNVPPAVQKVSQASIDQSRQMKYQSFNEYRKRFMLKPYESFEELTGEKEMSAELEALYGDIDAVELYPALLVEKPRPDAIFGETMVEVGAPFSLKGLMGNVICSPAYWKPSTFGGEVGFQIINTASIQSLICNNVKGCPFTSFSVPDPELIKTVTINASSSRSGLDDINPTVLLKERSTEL
Method: as §1, §2

T1 sequence (P23219 24-599): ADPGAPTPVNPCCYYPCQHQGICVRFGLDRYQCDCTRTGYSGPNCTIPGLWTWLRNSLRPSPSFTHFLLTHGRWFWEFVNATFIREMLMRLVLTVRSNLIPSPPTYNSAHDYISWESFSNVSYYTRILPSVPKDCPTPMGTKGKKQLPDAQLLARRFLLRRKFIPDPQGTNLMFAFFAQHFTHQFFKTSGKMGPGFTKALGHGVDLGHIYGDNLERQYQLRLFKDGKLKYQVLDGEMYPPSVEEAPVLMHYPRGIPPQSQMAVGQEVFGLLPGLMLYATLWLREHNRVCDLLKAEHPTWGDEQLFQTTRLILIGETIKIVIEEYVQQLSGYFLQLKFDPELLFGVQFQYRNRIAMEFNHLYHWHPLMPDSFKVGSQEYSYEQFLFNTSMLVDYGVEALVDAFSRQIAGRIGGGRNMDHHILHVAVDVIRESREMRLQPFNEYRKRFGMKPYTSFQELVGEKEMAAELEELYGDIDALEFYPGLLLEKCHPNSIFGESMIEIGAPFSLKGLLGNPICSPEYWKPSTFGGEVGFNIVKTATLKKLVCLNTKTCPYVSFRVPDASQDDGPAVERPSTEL

| SMILES | IC50 (COX I) [µM] | IC50 (COX II) [nM] |
| --- | --- | --- |
| Cc1cc(Cc2ccc(NS(C)(=O)=O)cc2)n(C)c1C(=O)c1ccc(Cl)cc1 [compound 1, N-{4-[5-(4-Chlorobenzoyl)-1,4-dimethyl-1H-pyrrol-2-ylmethyl]phenyl}methane-sulfonamide] | 11 | 150 |
| Cc1cc(C(C)c2ccc(NS(C)(=O)=O)cc2)n(C)c1C(=O)c1ccc(Cl)cc1 (stereo not shown) [compound 11, N-{4-[5-(4-Chlorobenzoyl)-1,4-dimethyl-1H-pyrrol-2-ylethan-1-yl]phenyl}-methanesulfonamide] | 7.5 | 510 |
| Cc1cc(Cc2c(F)cc(NS(C)(=O)=O)cc2F)n(C)c1C(=O)c1ccc(Cl)cc1 [compound 27, N-{3,5-Difluoro-4-[5-(4-chlorobenzoyl)-1,4-dimethyl-1H-pyrrol-2-ylmethyl]-phenyl}-methanesulfonamide] | 415 | 63 |
| Cc1ccc(C(=O)c2ccc(Cc3ccc(NS(C)(=O)=O)cc3)n2C)cc1 [compound 28, N-{4-[5-(4-Methylbenzoyl)-1-methyl-1H-pyrrol-2-ylmethyl]phenyl}methanesulfonamide] | 33 | 190 |
| Cc1ccc(C(=O)c2ccc(Cc3ccc(NS(C)(=O)=O)cc3Cl)n2C)cc1 [compound 31, N-{3-Chloro-4-[5-(4-methylbenzoyl)-1-methyl-1H-pyrrol-2-ylmethyl]phenyl}-methanesulfonamide] | 3.9 | 45 |
| Cc1ccc(C(=O)c2c(C)cc(Cc3ccc(NS(C)(=O)=O)cc3F)n2C)cc1 [compound 38, N-{3-Fluoro-4-[5-(4-methylbenzoyl)-1,4-dimethyl-1H-pyrrol-2-ylmethyl]phenyl}-methanesulfonamide] | 0.27 | 65 |
| Cc1cc(Cc2ccc(NS(C)(=O)=O)cc2F)n(C)c1C(=O)c1ccccc1 [compound 60, N-{3-Fluoro-4-[5-benzoyl-1,4-dimethyl-1H-pyrrol-2-ylmethyl]phenyl}methanesulfonamide] | 0.16 | 28 |
| Cc1cc(Cc2ccc(NS(=O)(=O)CCO)cc2F)n(C)c1C(=O)c1ccccc1 [compound 63, N-{3-Fluoro-4-[5-benzoyl-1,4-dimethyl-1H-pyrrol-2-ylmethyl]phenyl}-2-(hydroxy)-ethanesulfonamide] | 0.035 | 330 |
| Cn1c(Cc2ccc(NS(=O)(=O)CCO)cc2F)ccc1C(=O)c1ccccc1 [compound 66, N-{3-Fluoro-4-[5-benzoyl-1-methyl-1H-pyrrol-2-ylmethyl]phenyl}-2-(hydroxy)-ethanesulfonamide] | 6.9 | 120 |
| CCS(=O)(=O)Nc1ccc(Cc2cc(C)c(C(=O)c3ccccc3)n2C)c(F)c1 [compound 68, N-{3-Fluoro-4-[5-benzoyl-1,4-dimethyl-1H-pyrrol-2-ylmethyl]phenyl}ethanesulfonamide] | 0.86 | 73 |
| Cc1ccccc1C(=O)c1ccc(Cc2ccc(NS(C)(=O)=O)cc2F)n1C [compound 71, N-{3-Fluoro-4-[5-(2-methylbenzoyl)-1-methyl-1H-pyrrol-2-ylmethyl]phenyl}-methanesulfonamide] | 38 | 160 |
| COc1ccccc1C(=O)c1ccc(Cc2ccc(NS(C)(=O)=O)cc2F)n1C [compound 72, N-{3-Fluoro-4-[5-(2-methoxybenzoyl)-1-methyl-1H-pyrrol-2-ylmethyl]phenyl}-methanesulfonamide] | 265 | 700 |
| CN(C)c1ccc(C(=O)c2ccc(Cc3ccc(NS(C)(=O)=O)cc3F)n2C)cc1 [compound 88, N-{3-Fluoro-4-[5-(4-dimethylaminobenzoyl)-1-methyl-1H-pyrrol-2-ylmethyl]phenyl}-methanesulfonamide] | < 0.1 | 60 |
| COc1ccc(C(=O)c2c(C)cc(Cc3ccc(NS(C)(=O)=O)cc3F)n2C)cc1 [compound 95, N-{3-Fluoro-4-[5-(4-methoxybenzoyl)-1,4-dimethyl-1H-pyrrol-2-ylmethyl]phenyl}-methanesulfonamide] | 0.09 | 60 |
| CCS(=O)(=O)Nc1ccc(Cc2cc(C)c(C(=O)c3ccc(OC)cc3)n2C)c(F)c1 [compound 97, N-{3-Fluoro-4-[5-(4-methoxybenzoyl)-1,4-dimethyl-1H-pyrrol-2-ylmethyl]phenyl}-ethanesulfonamide] | < 0.1 | 38 |
| Cc1cc(Cc2ccc(NS(=O)(=O)CCO)cc2F)n(C)c1C(=O)c1ccc(F)cc1 [compound 104, N-{3-Fluoro-4-[5-(4-fluorobenzoyl)-1,4-dimethyl-1H-pyrrol-2-ylmethyl]phenyl}-2-(hydroxy)ethanesulfonamide] | 0.75 | 240 |
| COc1ccc(C(=O)c2ccc(Cc3ccc(NS(=O)(=O)CCO)cc3F)n2C)cc1 [compound 106, N-{3-Fluoro-4-[5-(4-methoxybenzoyl)-1-methyl-1H-pyrrol-2-ylmethyl]phenyl}-2-(hydroxy)ethanesulfonamide] | 0.95 | 70 |
| CS(=O)(=O)Nc1ccc(C2CCn3c(C(=O)c4ccccc4)ccc32)c(Cl)c1 (stereo not shown) [compound 131, N-{3-Chloro-4-[5-Benzoyl-1,2-dihydro-3H-pyrrolizin-1-yl]phenyl}methanesulfonamide] | 0.2 | 77 |
| COc1ccc(C(=O)c2ccc3n2CCC3c2ccc(NS(=O)(=O)CCO)cc2Cl)cc1 (stereo not shown) [compound 133, N-{3-Chloro-4-[5-(4-methoxybenzoyl)-1,2-dihydro-3H-pyrrolizin-1-yl]phenyl}-2(hydroxy)ethanesulfonamide] | 0.045 | 58 |
| Cc1cc(Cc2ccc(NS(N)(=O)=O)cc2)n(C)c1C(=O)c1ccc(Cl)cc1 [compound 141, 1-{4-[5-(4-Chlorobenzoyl)-1,4-dimethyl-1H-pyrrol-2-ylmethyl]phenyl}sulfamide] | 3.9 | 30 |
| Cc1cc(Cc2ccc(NS(N)(=O)=O)cc2C#N)n(C)c1C(=O)c1ccc(Cl)cc1 [compound 147, 1-{3-Cyano-4-[5-(4-chlorobenzoyl)-1,4-dimethyl-1H-pyrrol-2-ylmethyl]phenyl}sulfamide] | 0.6 | 100 |
| Cc1ccc(C(=O)c2ccc(Cc3ccc(NS(N)(=O)=O)cc3F)n2C)cc1 [compound 154, 1-{3-Fluoro-4-[5-(4-methylbenzoyl)-1-methyl-1H-pyrrol-2-ylmethyl]phenyl}sulfamide] | 34 | 54 |
| CNS(=O)(=O)Nc1ccc(Cc2ccc(C(=O)c3ccc(C)cc3C)n2C)c(F)c1 [compound 172, 1-{3-Fluoro-4-[5-(2,4-dimethylbenzoyl)-1-methyl-1H-pyrrol-2-ylmethyl]phenyl}-3-methylsulfamide] | 43 | 90 |
| Cc1cc(Cc2ccc(NS(N)(=O)=O)cc2)n(C)c1C(=O)c1ccccc1 [compound 177, 1-{4-[5-benzoyl-1,4-dimethyl-1H-pyrrol-2-ylmethyl]phenyl}sulfamide] | 0.79 | 300 |
| COc1ccc(C(=O)c2ccc(Cc3ccc(NS(N)(=O)=O)cc3F)n2C)cc1 [compound 196, 1-{3-Fluoro-4-[5-(4-Methoxybenzoyl)-1-methyl-1H-pyrrol-2-ylmethyl]phenyl}sulfamide] | 5 | 40 |
| COc1ccc(C(=O)c2c(C)cc(Cc3ccc(NS(N)(=O)=O)cc3F)n2C)cc1 [compound 197, 1-{3-Fluoro-4-[5-(4-Methoxybenzoyl)-1,4-dimethyl-1H-pyrrol-2-ylmethyl]phenyl}-sulfamide] | < 0.1 | 70 |
| COc1ccc(C(=O)c2ccc(Cc3ccc(NS(N)(=O)=O)cc3C#N)n2C)cc1 [compound 202, 1-{3-Cyano-4-[5-(4-methoxybenzoyl)-1-methyl-1H-pyrrol-2-ylmethyl]phenyl}-sulfamide] | 3.2 | 50 |
| Cc1cc(Cc2ccc(N)cn2)n(C)c1C(=O)c1ccc(Cl)cc1 [compound 333, {2-[5-(4-Chlorobenzoyl)-1,4-dimethyl-1H-pyrrol-2-ylmethyl]pyridin-5-yl}amine] | – | 78400 |
